In ChEMBL document CHEMBL3885861, “Open TG-GATES”:

Species: Rattus norvegicus
Assay: Open TG-GATES - Regimen: Daily Repeat
Type: toxicity, organism-based, Sprague-Dawley
Design: regimen Daily Repeat, gender Male, age 6 weeks
Settings: in vivo, po, 0 mg/kg, […], route gavage, dose level Control; for KIDNEY_L / KIDNEY_R / KIDNEY_TOTAL: tissue Kidney; for LIVER: tissue Liver; for A/G / ALP / ALT / AST / BUN / CRE / Ca / Cl / DBIL / GLC / IP / K / LDH / Na / PL / RALB / TBIL / TC / TG / TP / gamma-GTP: tissue Plasma

Cc1cccc(Nc2ccccc2C(=O)O)c1C [MEFENAMIC ACID]
Lym (tissue Blood, time 28 day): 81.4% | MCH (tissue Blood, time 28 day): 20.1 pg | MCHC (tissue Blood, time 28 day): 35% | MCV (tissue Blood, time 28 day): 57.4 fL | Mono (tissue Blood, time 28 day): 2% | Neu (tissue Blood, time 28 day): 14.4% | PT (tissue Blood, time 28 day): 11.8 s | Plat (tissue Blood, time 28 day): 111.8 x10_4/uL | RBC (tissue Blood, time 28 day): 763.4 x10_4/ul | Ret (tissue Blood, time 28 day): 2.7% | WBC (tissue Blood, time 28 day): 91.7 x10_2/uL | KIDNEY_L (time 7 day): 1.1 g | KIDNEY_R (time 7 day): 1.1 g | KIDNEY_TOTAL (time 7 day): 2.2 g | KIDNEY_L (time 14 day): 1.2 g | KIDNEY_R (time 14 day): 1.2 g | KIDNEY_TOTAL (time 14 day): 2.4 g | KIDNEY_L (time 28 day): 1.4 g | KIDNEY_R (time 28 day): 1.4 g | KIDNEY_TOTAL (time 28 day): 2.9 g | LIVER (time 7 day): 11.4 g | LIVER (time 14 day): 13.7 g | LIVER (time 28 day): 17.3 g | A/G (time 7 day): 1.5 | ALP (time 7 day): 908 IU/L | ALT (time 7 day): 38.8 IU/L | AST (time 7 day): 69.4 IU/L | BUN (time 7 day): 14.8 mg/dL | CRE (time 7 day): 0.4 mg/dL | Ca (time 7 day): 10.6 mg/dL | Cl (time 7 day): 103.4 meq/L | DBIL (time 7 day): 0.07 mg/dL | GLC (time 7 day): 229.4 mg/dL | IP (time 7 day): 6.9 mg/dL | K (time 7 day): 3.8 meq/L | LDH (time 7 day): 181 IU/L | Na (time 7 day): 140.4 meq/L | PL (time 7 day): 135.4 mg/dL | RALB (time 7 day): 3.3 g/dL | TBIL (time 7 day): 0.1 mg/dL | TC (time 7 day): 71 mg/dL | TG (time 7 day): 68.2 mg/dL | TP (time 7 day): 5.6 g/dL | gamma-GTP (time 7 day): 1 IU/L | A/G (time 14 day): 1.5 | ALP (time 14 day): 880 IU/L | ALT (time 14 day): 31 IU/L | AST (time 14 day): 58.8 IU/L | BUN (time 14 day): 16 mg/dL | CRE (time 14 day): 0.5 mg/dL | Ca (time 14 day): 10.5 mg/dL | Cl (time 14 day): 103 meq/L | DBIL (time 14 day): 0.092 mg/dL | GLC (time 14 day): 233.6 mg/dL | IP (time 14 day): 7.1 mg/dL | K (time 14 day): 3.9 meq/L | LDH (time 14 day): 154.4 IU/L | Na (time 14 day): 140.6 meq/L | PL (time 14 day): 142.8 mg/dL | RALB (time 14 day): 3.4 g/dL | TBIL (time 14 day): 0.2 mg/dL | TC (time 14 day): 73.4 mg/dL | TG (time 14 day): 101.4 mg/dL | TP (time 14 day): 5.6 g/dL | gamma-GTP (time 14 day): 0.8 IU/L | A/G (time 28 day): 1.3 | ALP (time 28 day): 665 IU/L | ALT (time 28 day): 33.4 IU/L | AST (time 28 day): 56.6 IU/L | BUN (time 28 day): 18.8 mg/dL | CRE (time 28 day): 0.5 mg/dL | Ca (time 28 day): 10.6 mg/dL | Cl (time 28 day): 103.4 meq/L | DBIL (time 28 day): 0.1 mg/dL | GLC (time 28 day): 242.8 mg/dL | IP (time 28 day): 7 mg/dL | K (time 28 day): 3.8 meq/L | LDH (time 28 day): 111.2 IU/L | Na (time 28 day): 140.6 meq/L | PL (time 28 day): 151.8 mg/dL | RALB (time 28 day): 3.6 g/dL | TBIL (time 28 day): 0.2 mg/dL | TC (time 28 day): 74.2 mg/dL | TG (time 28 day): 141.4 mg/dL | TP (time 28 day): 6.2 g/dL | gamma-GTP (time 28 day): 1.6 IU/L
